# Results as given in US20070288217A1, “Method for Standardization of Chemical and Therapeutic Values of Foods and Medicines Using Animated Chromatographic Fingerprinting” (priority 2004, published 2007).
# Entries after “also recorded” stand apart in the source; their conditions may differ.
# Test: Chromatographic fingerprinting (HPLC-PDA contour and 3-D chromatograms) with interpretation of chemical and therapeutic properties by polarity and conjugation zones
# Conditions: for Change of the molecules with time in the media (fingerprints at different time intervals): different time intervals under chemical conditions
compound,measurement,setting,value
Cc1ccc(-c2cc(C(F)(F)F)nn2-c2ccc(S(N)(=O)=O)cc2)cc1 [Celebocoxib],Action compared to the other medicines of the same group,,different in action
O=C(/C=C/c1ccc(O)c(O)c1)O[C@@H]1C[C@](O)(C(=O)O)C[C@@H](O)[C@H]1O [Chlorogenic acid],Change of the molecules with time in the media (fingerprints at different time intervals),,under go changes
CC(C)=CCC/C(C)=C/C=C/C(C)=C/C=C/C(C)=C/C=C/C=C(C)/C=C/C=C(C)/C=C/C=C(\C)CCC=C(C)C [Lycopine],Therapeutic property / site of action interpreted from the fingerprint,,shrothoshodhaka property; also recorded: stress reliever
same,Change of the molecules with time in the media (fingerprints at different time intervals),,under go changes; also recorded: slowly diminished with time
CC12CC3CC(C)(C1)CC(N)(C3)C2 [Mamentane],"Effect when consumed excessively, interpreted from the fingerprint",excessive use,effect on Maha srothas
COc1ccc2[nH]c([S+]([O-])Cc3ncc(C)c(OC)c3C)nc2c1 (stereo not shown) [Onmeprazole],Therapeutic property interpreted from the fingerprint,simulated acidic condition,Ropaneeya property
same,Therapeutic property interpreted from the fingerprint,the other prakrithi,has not acted so
